Experimental data from patent US20260083750A1, “SMALL MOLECULE INHIBITORS OF KRAS PROTEINS” (MERCK SHARP & DOHME LLC, priority 2022, published 2026).

Key:
KRAS-G12D = biological target: T1, KRAS-G12D (Homo sapiens, UniProt P01116, G12D); experiment: SOS-catalyzed nucleotide exchange assay (Procedure A, TR-FRET); assay type: biochemical; conditions: 60 min preincubation, SOS + GTP, read-out: KRAS G12D GNE IC50
T1 construct: N-terminal biotin-acceptor peptide […]
Text: (§1) Procedure for SOS-Catalyzed Nucleotide Exchange Assay for KRAS-G12C/D/V, G13D, HRAS, and NRAS (Procedure A)
(§2) Recombinant KRAS-G12C protein used in this assay has an additional triple mutation (C51S/C80L/C118S), whereas KRAS-G12D/V, G13D, HRAS and NRAS are in context of their WT protein sequence background. Specifically, the SOS-catalyzed nucleotide exchange assay utilizes a preformed TR-FRET complex containing a specific biotinylated RAS protein (KRAS-G12C/V/D, G13D, HRAS, NRAS; described above) with Bodipy-GDP, and Terbium-streptavidin. Compounds are preincubated with this complex for 60 minutes. Subsequently, recombinant human SOS protein and unlabeled GTP are added to initiate the exchange reaction. Small molecule inhibitors stabilize the Bodipy-GDP complex whereas the untreated protein rapidly exchanges Bodipy-GDP for unlabeled GTP resulting in reduced TR-FRET signal.
(§3) To assemble the preformed TR-FRET complexes, each biotinylated RAS protein is diluted to 2 μM in an EDTA Buffer (20 mM HEPES pH 7.5, 50 mM sodium chloride, 10 mM EDTA, and 0.01% Tween) and incubated at room temperature for one hour. This mixture is then further diluted to 90 nM in an Assay Buffer (20 mM HEPES pH 7.5, 150 mM sodium chloride, 10 mM magnesium chloride, and 0.005% Tween) containing 15 nM of Terbium-Streptavidin (Invitrogen, catalog #PV3577) and 900 nM of Bodipy-GDP (Invitrogen, catalog #G22360) and incubated at room temperature for six hours. It should be noted that this preformed TR-FRET complex for each of the RAS protein were made ahead of time, aliquoted and stored at −80° C. until the day of the experiment.
(§4) Each test compound (10 mM stock in DMSO) is diluted in DMSO to make a final-10-point, 3-fold dilution and is acoustically dispensed into a 384-well assay plate (Corning, catalog #3820) using an Echo 550 (Labcyte). Each well of the assay plate receives 3 μL of a specific 3× RAS preformed TR-FRET complex and 3 μL of Assay Buffer and is incubated at room temperature for 60 minutes (preincubation time). Each well then receives 3 μL of 3× recombinant human SOS protein and GTP (Sigma, G8877) in Assay Buffer and is incubated at room temperature for 30 minutes (G13D), 60 minutes (G12C/D, H/NRAS) or 90 minutes for G12V. The final reaction in each well of […] consists of 3 mM GTP, specific Ras and SOS proteins in the following concentrations: KRAS-G12C/SOS=3 nM/40 nM, KRAS-G12D/SOS=1 nM/40 nM, KRAS-G12V/SOS=1.25 nM/160 nM, KRAS-G13D/SOS=1.25 nM/0 nM, HRAS & NRAS=1.25 nM/40 nM.
(§5) The time-resolved fluorescence resonance energy transfer (TR-FRET) signal is measured on an Envision (PerkinElmer) plate reader: Excitation filter=340 nm; emission1=495 nm; emission2=520 nm; dichroic mirror=D400/D505; delay time=[…]. The signal of each well is determined as the ratio of the emission at 520 nm to that at 495 nm. […] The apparent effect as a function of compound concentration is fit to a four-parameter logistic equation.

KRAS-G12V = biological target: T2, KRAS-G12V (Homo sapiens, UniProt P01116, G12V); experiment: as above; assay type: biochemical; conditions: 60 min preincubation, SOS + GTP, read-out: KRAS G12V GNE IC50
T2 construct: N-terminal biotin-acceptor peptide […]
Text: as §1, §2, §3, §4, §5

[1] = tested on: PANC08.13 cells (homozygous KRAS-G12D activating mutation); experiment: Cellular phospho-ERK assay in G12D cell line; assay type: cell-based; conditions: Homo sapiens, PANC-08-13, 2 hours compound incubation, ratio of p-ERK vs. total ERK, read-out: PANC 0813 pERK IC50
Protocol: Procedure for Cellular Phospho-ERK Assay in G12D and G12V Cell Lines
PANC08.13 cells (ATCC® CRL-2551™), containing homozygous KRAS-G12D activating mutation, were cultured in growth medium made of RPMI1640-GlutaMAX™—I (ThermoFisher Scientific 61870) containing 15% heat inactivated fetal bovine serum (ThermoFisher Scientific 10091148)). SW620 cells (ATCC® […]), containing homozygous KRAS-G12V activating mutation, were cultured in growth medium that contains RPMI 1640-GlutaMAX™—I (ThermoFisher Scientific 61870) containing 10% heat inactivated fetal bovine serum (ThermoFisher Scientific 10091148).
Cells for the assay were harvested in growth medium after TrypLE (ThermoFisher scientific 12604021) digestion and were seeded in a 384-well collagen coated cell culture plate (Corning 356702) at a density of 10,000-15,000 cells/20 uL/well, and incubated at 37° C., 5% CO2 overnight. The compound (with 10 mM stock concentration) dose-response titrations were prepared [30 μM final ERK detection assay concentration and 1:3 dilutions, 10-point dose response] and appropriate amounts (270 nL) of test compounds were dispensed in a 384-well intermediate plate using an Echo 550 liquid handler. 30 uL/well of RPMI medium 1640-GlutaMAX™—I was added to the intermediate plate and the contents of the intermediate plate (10 uL/well) were then transferred to the 384-well collagen coated cell culture plate, which was incubated at 37° C., 5% CO2 for 2 hours. After removal of medium from the collagen coated cell culture plate, cells were lysed in lysis buffer from Alpha SureFire® Ultra™ Multiplex p-ERK and total ERK assay kit (PerkinElmer MPSU-PTERK) containing Halt™ Protease and Phosphatase inhibitor cocktail (ThermoFisher Scientific 78446) at room temperature with constant shaking at 300 rpm for 30 minutes. The cell lysates were then transferred to an OptiPlate-384 plate (PerkinElmer 6005620), and the phosphorylation of ERK (p-ERK) and total ERK levels were detected by Alpha SureFire® Ultra™ Multiplex p-EEK kit and total ERK assay kit (PerkinElmer MPSU-PTERK) following the manufacturer's protocol. Assay plates were read on a EnVision Multimode Plate Reader (PerkinElmer), and the ratio of p-ERK vs. total ERK in each well was used as the final readout. Dose response curves were analyzed using a 4-parameter logistic model to calculate IC50 values using Spotfire software.

T2 sequence (P01116 with tags, fused parts or gaps isoform P01116-2 G12V): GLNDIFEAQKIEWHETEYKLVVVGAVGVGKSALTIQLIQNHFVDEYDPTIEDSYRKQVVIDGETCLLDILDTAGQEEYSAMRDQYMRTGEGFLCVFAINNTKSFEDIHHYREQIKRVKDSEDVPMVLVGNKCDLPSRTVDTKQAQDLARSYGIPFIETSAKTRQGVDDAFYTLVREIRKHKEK
T1 sequence (P01116 with tags, fused parts or gaps isoform P01116-2 G12D): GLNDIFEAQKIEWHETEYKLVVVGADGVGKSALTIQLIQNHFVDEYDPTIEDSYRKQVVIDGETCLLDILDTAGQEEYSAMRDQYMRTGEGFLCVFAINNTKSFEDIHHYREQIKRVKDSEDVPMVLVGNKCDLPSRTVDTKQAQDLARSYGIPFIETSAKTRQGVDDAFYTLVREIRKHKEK

Row | SMILES | IC50 (KRAS-G12D) [nM] | IC50 (KRAS-G12V) [nM] | IC50 [1] [nM]
1 | CCC1CCOCCN1c1nc(OC[C@@]23CCCN2C[C@H](F)C3)nc2c(F)c(-c3ccc(F)c4sc(N)c(C#N)c34)c(Cl)cc12 (stereo partly drawn) [compound 14, 2-amino-4-(6-chloro-4-(5-ethyl-1,4-oxazepan-4-yl)-8-fluoro-2-(((2R,7aS)-2-fluorotetrahydro-1H-pyrrolizin-7a(5H)-yl)methoxy)quinazo-lin-7-yl)-7-fluorobenzo[b]thio-phene-3-carbonitrile] | 6.32 | 6.18 | 154
2 | N#Cc1c(N)sc2c(F)ccc(-c3c(Cl)cc4c(N5CCOCCC5C(F)(F)F)nc(OC[C@@]56CCCN5C[C@H](F)C6)nc4c3F)c12 (stereo partly drawn) [compound 15, 2-amino-4-(6-chloro-8-fluoro-2-(((2R,7aS)-2-fluorotetrahydro-1H-pyrrolizin-7a(5H)-yl)methoxy)-4-(5-(trifluoromethyl)-1,4-oxazepan-4-yl)quinazolin-7-yl)-7-fluorobenzo[b]thio-phene-3-carbonitrile] | 94 | 20.1 | 464
3 | N#Cc1c(N)sc2c(F)ccc(-c3c(Cl)cc4c(N5C6COCC5C6)nc(OC[C@@]56CCCN5C[C@H](F)C6)nc4c3F)c12 [compound 47, 4-(4-(3-oxa-6-azabicyclo[3.1.1]heptan-6-yl)-6-chloro-8-fluoro-2-(((2R,7aS)-2-fluorotetrahydro-1H-pyrrolizin-7a(5H)-yl)methoxy)quinazolin-7-yl)-2-amino-7-fluorobenzo[b]thiophene-3-carbonitrile] | 23.4 |  | 
4 | C[C@H]1CCOCCN1c1nc(OC[C@@]23CCCN2C[C@H](F)C3)nc2cc(-c3ccc(F)c4sc(N)c(C#N)c34)c(C(F)(F)F)nc12 [compound 50, 2-amino-7-fluoro-4-(2-(((2R,7aS)-2-fluorotetrahydro-1H-pyrrolizin-7a(5H)-yl)methoxy)-4-((S)-5-methyl-1,4-oxazepan-4-yl)-6-(trifluoromethyl)pyrido[3,2-d]pyrimidin-7-yl)benzo[b]thiophene-3-carbonitrile] | 30.5 | 7.6 | 
5 | N#Cc1c(N)sc2c(F)ccc(-c3c(C(F)(F)F)cc4c(N5C[C@H]6CC[C@H]6C5)nc(OC[C@@]56CCCN5C[C@H](F)C6)nc4c3F)c12 [compound 52, 4-(4-((1R,5S)-3-azabicyclo[3.2.0]heptan-3-yl)-8-fluoro-2-(((2R,7aS)-2-fluorotetrahydro-1H-pyrrolizin-7a(5H)-yl)methoxy)-6-(trifluoromethyl)quinazo-lin-7-yl)-2-amino-7-fluorobenzo[b]thiophene-3-carbonitrile] | 210 | 43.1 | 
6 | N#Cc1c(N)sc2c(F)ccc(-c3c(C(F)(F)F)cc4c(N5CCC6(C5)CC6(F)F)nc(OC[C@@]56CCCN5C[C@H](F)C6)nc4c3F)c12 (stereo partly drawn) [compound 53, 2-amino-4-(4-(1,1-difluoro-5-azaspiro[2.4]heptan-5-yl)-8-fluoro-2-(((2R,7aS)-2-fluorotetrahydro-1H-pyrrolizin-7a(5H)-yl)methoxy)-6-(trifluoromethyl)quinazo-lin-7-yl)-7-fluorobenzo[b]thiophene-3-carbonitrile] | 972 | 84.7 | 

Now from value to molecule:

Row | IC50 (KRAS-G12D) [nM] | IC50 (KRAS-G12V) [nM] | IC50 [1] [nM] | SMILES
7 | 40.9 | 8.9 |  | N#Cc1c(N)sc2c(F)ccc(-c3cc4nc(OC[C@@]56CCCN5C[C@H](F)C6)nc(N5CCCOCC5)c4nc3C(F)(F)F)c12 [Ex. 46, 2-amino-7-fluoro-4-(2-(((2R,7aS)-2-fluorotetrahydro-1H-pyrrolizin-7a(5H)-yl)methoxy)-4-(1,4-oxazepan-4-yl)-6-(trifluoromethyl)pyrido[3,2-d]pyrimidin-7-yl)benzo[b]thiophene-3-carbonitrile]
8 | 273 | 59.1 |  | Cc1cc(N)nc(-c2c(Cl)cc3c(N4CCCSCC4)nc(OC[C@@]45CCCN4C[C@H](F)C5)nc3c2F)c1C(F)(F)F [compound 42, 6-(6-chloro-8-fluoro-2-(((2R,7aS)-2-fluorotetrahydro-1H-pyrrolizin-7a(5H)-yl)methoxy)-4-(1,4-thiazepan-4-yl)quinazolin-7-yl)-4-methyl-5-(trifluoromethyl)pyridin-2-amine]
9 | 927 | 91.8 |  | Cc1cc(N)nc(-c2c(Cl)cc3c(N4CCOCC(F)(F)C4)nc(OC[C@@]45CCCN4C[C@H](F)C5)nc3c2F)c1C(F)(F)F [compound 43, 6-(6-chloro-4-(6,6-difluoro-1,4-oxazepan-4-yl)-8-fluoro-2-(((2R,7aS)-2-fluorotetrahydro-1H-pyrrolizin-7a(5H)-yl)methoxy)quinazolin-7-yl)-4-methyl-5-(trifluoromethyl)pyridin-2-amine]
10 | 70.9 | 8.89 |  | N#Cc1c(N)sc2c(F)ccc(-c3c(Cl)cc4c(N5CCOCC5)nc(OC[C@@]56CCCN5C[C@H](F)C6)nc4c3F)c12 [compound 48, 2-amino-4-(6-chloro-8-fluoro-2-(((2R,7aS)-2-fluorotetrahydro-1H-pyrrolizin-7a(5H)-yl)methoxy)-4-morpholinoquinazolin-7-yl)-7-fluorobenzo[b]thiophene-3-carbonitrile]
11 | 477 | 160 |  | C[C@H]1CCOCCN1c1nc(OC[C@@]23CCCN2C[C@H](F)C3)nc2c(F)c(-c3ccc(F)c4sc(N)c(C#N)c34)ccc12 [compound 49, 2-amino-7-fluoro-4-(8-fluoro-2-(((2R,7aS)-2-fluorotetrahydro-1H-pyrrolizin-7a(5H)-yl)methoxy)-4-((S)-5-methyl-1,4-oxazepan-4-yl)quinazolin-7-yl)benzo[b]thiophene-3-carbonitrile]
12 | 23.7 | 4.52 |  | N#Cc1c(N)sc2c(F)ccc(-c3c(C(F)(F)F)cc4c(N5CC6COC(C6)C5)nc(OC[C@@]56CCCN5C[C@H](F)C6)nc4c3F)c12 (stereo partly drawn) [compound 51, 4-(4-((1R,5S)-6-oxa-3-azabicyclo[3.2.1]octan-3-yl)-8-fluoro-2-(((2R,7aS)-2-fluorotetrahydro-1H-pyrrolizin-7a(5H)-yl)methoxy)-6-(trifluoromethyl)quinazo-lin-7-yl)-2-amino-7-fluorobenzo[b]thiophene-3-carbonitrile]
